Results as given in the NIST ThermoML archive (doi:10.1021/je060271a).
± gives the expanded uncertainty stated by the source.

Conditions: 323.14 K, Liquid, Vibrating tube method

CCCCCCC(=O)OCC(COC(=O)CCCCCC)(COC(=O)CCCCCC)COC(=O)CCCCCC [pentaerythritol tetraheptanoate]
Conditions	mass density [kg/m3]
18264 kPa	967.6 ± 1.2
18279 kPa	967.6 ± 1.2
18292 kPa	967.7 ± 1.2
18304 kPa	967.6 ± 1.2
18320 kPa	967.6 ± 1.2
18332 kPa	967.6 ± 1.2
18347 kPa	967.6 ± 1.2
18360 kPa	967.7 ± 1.2
18373 kPa	967.7 ± 1.2
18385 kPa	967.8 ± 1.2
18401 kPa	967.7 ± 1.2
18413 kPa	967.8 ± 1.2
18426 kPa	967.6 ± 1.2
18442 kPa	967.8 ± 1.2
18454 kPa	967.7 ± 1.2
18469 kPa	967.7 ± 1.2
18482 kPa	967.7 ± 1.2
18495 kPa	967.7 ± 1.2
18511 kPa	967.7 ± 1.2
18920 kPa	967.9 ± 1.2
18933 kPa	968 ± 1.2
18964 kPa	968.1 ± 1.2
19110 kPa	968.3 ± 1.2
19518 kPa	968.3 ± 1.2
19532 kPa	968.3 ± 1.2
19550 kPa	968.4 ± 1.2
19962 kPa	968.7 ± 1.2
20010 kPa	968.7 ± 1.2
20615 kPa	969.1 ± 1.2
20951 kPa	969.3 ± 1.2
20968 kPa	969.2 ± 1.2
21002 kPa	969.4 ± 1.2
21114 kPa	969.2 ± 1.2
21149 kPa	969.4 ± 1.2
21166 kPa	969.4 ± 1.2
21187 kPa	969.4 ± 1.2
21204 kPa	969.5 ± 1.2
21222 kPa	969.3 ± 1.2
21243 kPa	969.4 ± 1.2
21261 kPa	969.4 ± 1.2
21812 kPa	969.9 ± 1.2
21889 kPa	969.8 ± 1.2
21912 kPa	969.9 ± 1.2
22010 kPa	969.9 ± 1.2
22028 kPa	970 ± 1.2
22051 kPa	969.9 ± 1.2
22255 kPa	970 ± 1.2
22294 kPa	970.1 ± 1.2
22673 kPa	970.3 ± 1.2
22693 kPa	970.2 ± 1.2
22738 kPa	970.5 ± 1.2
22934 kPa	970.5 ± 1.2
22955 kPa	970.5 ± 1.2
22976 kPa	970.5 ± 1.2
23001 kPa	970.4 ± 1.2
23022 kPa	970.6 ± 1.2
